Measurements: ChEMBL document CHEMBL1201862, “PubChem BioAssay data set” (2004)
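Results reflect a 48-hour exposure of cells in 96-well plates to compound at five concentrations. GI50 marks 50% less growth.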 Activity calls are given as the source filed them. No stated cut-off is given here; in the data, active = GI50 up to about 1.1 µM and inactive = higher.

How the values were obtained:
Assay in all cases: NCI anticancer screen, dose series, 48 h
[1] = system: SF-539
[2] = system: SNB-78
[3] = system: LXFL 529
[4] = system: IGROV-1
[5] = system: HCT-15
[6] = system: SK-MEL-28
[7] = system: SF-295
[8] = system: HCC 2998
[9] = system: NCI-H460
[10] = system: SNB-75
[11] = system: HOP-62
[12] = system: U-251
[13] = system: HL-60
[14] = system: MOLT-4
[15] = system: UACC-62
[16] = system: OVCAR-5

SMILES | GI50 [1] | GI50 [2] | GI50 [3] | GI50 [4] | GI50 [5] | GI50 [6] | GI50 [7] | GI50 [8] | GI50 [9] | GI50 [10] | GI50 [11] | GI50 [12] | GI50 [13] | GI50 [14] | GI50 [15] | GI50 [16]
CS/C(=N\C(=S)N(C)C)N(c1ccccc1)c1nc(N(C)C)s[s+]1 | 7.67 µM (inactive) | 16.9 µM (inactive) | 3.87 µM (inactive) | 77.3 µM (inactive) | 19.8 µM | 2.21 µM (inactive) | 16.7 µM (inactive) | 11.9 µM (inactive) | 2.91 µM (inactive) | 3.18 µM (inactive) | 19.5 µM (inactive) | 6.84 µM (inactive) | 1.61 µM (inactive) | 3.08 µM (inactive) | 4.88 µM (inactive) | 
CCOC(=O)NC(=O)c1cn(CCSCCOC(=O)NCCCCCCNC(=O)OCCSCCn2cc(C(=O)NC(=O)OCC)c(=O)n(C)c2=O)c(=O)n(C)c1=O | 25.9 µM (inactive) | > 100 µM (inactive) | 5.36 µM (inactive) |  | 86.3 µM | 41.8 µM (inactive) | 75.7 µM (inactive) | 30.5 µM (inactive) | 29.9 µM (inactive) | > 100 µM (inactive) | 51.5 µM (inactive) | 16.8 µM (inactive) | 15.3 µM (inactive) | 5.68 µM (inactive) | 24.8 µM (inactive) | > 100 µM (inactive)
O=C(O)COc1ccccc1C(=O)Nc1ccccc1 | > 100 µM (inactive) | > 100 µM (inactive) | > 100 µM (inactive) | > 100 µM (inactive) | > 100 µM | > 100 µM (inactive) | > 100 µM (inactive) |  | > 100 µM (inactive) | 77.8 µM (inactive) | > 100 µM (inactive) | > 100 µM (inactive) | > 100 µM (inactive) | > 100 µM (inactive) | > 100 µM (inactive) | > 100 µM (inactive)
CC1=C[C@@H]2Cc3occc3C(C)(C)[C@@H]2CC1 | 23.8 µM (inactive) | 27.7 µM (inactive) | 37.5 µM (inactive) | > 10 µM (inactive) |  | 24 µM (inactive) | 19.5 µM (inactive) | 21.4 µM (inactive) |  | 18.1 µM (inactive) | 32.4 µM (inactive) | 18.5 µM (inactive) | 19.3 µM (inactive) | 19.6 µM (inactive) | > 10 µM (inactive) | 22.8 µM (inactive)
Cc1cccc(C(C)(C)C)c1NC(=O)CCc1nnc(S)[nH]1 | > 100 µM (inactive) | > 100 µM (inactive) | > 100 µM (inactive) | > 100 µM (inactive) | > 100 µM | > 100 µM (inactive) | > 100 µM (inactive) | > 100 µM (inactive) | > 100 µM (inactive) | > 100 µM (inactive) | > 100 µM (inactive) | > 100 µM (inactive) | > 100 µM (inactive) | > 100 µM (inactive) | > 100 µM (inactive) | > 100 µM (inactive)
COC(=O)/C(=N/O)C(C(=O)OC)C(=O)C(=O)Nc1c(Cl)cc(C)cc1S(=O)(=O)O (stereo unspecified) | > 100 µM (inactive) | > 100 µM (inactive) | > 100 µM (inactive) | > 100 µM (inactive) | > 100 µM | > 100 µM (inactive) | > 100 µM (inactive) | > 100 µM (inactive) | 41.5 µM (inactive) | > 100 µM (inactive) | > 100 µM (inactive) | > 100 µM (inactive) | > 100 µM (inactive) | > 100 µM (inactive) | > 100 µM (inactive) | > 100 µM (inactive)
C#Cc1c(C)c(/C=C/C(C)=C/C=C/C(C)=C/C(=O)OC)n(C)c1C | > 100 µM (inactive) | > 100 µM (inactive) | > 100 µM (inactive) | > 100 µM (inactive) | > 100 µM | > 100 µM (inactive) | > 100 µM (inactive) |  | > 100 µM (inactive) | 44.5 µM (inactive) | > 100 µM (inactive) | > 100 µM (inactive) | > 100 µM (inactive) | > 100 µM (inactive) | 62.5 µM (inactive) | > 100 µM (inactive)
COC(=O)/C(C#N)=C1\NN=NN1CCCc1ccccc1 | > 100 µM (inactive) | > 100 µM (inactive) | > 100 µM (inactive) | > 100 µM (inactive) | > 100 µM | > 100 µM (inactive) | > 100 µM (inactive) | > 100 µM (inactive) | > 100 µM (inactive) | > 100 µM (inactive) |  | > 100 µM (inactive) |  | > 100 µM (inactive) | > 100 µM (inactive) | 
Cc1ccccc1C(=O)c1c(O)c2c(c(O)c1Br)CCCC2 | 18.5 µM (inactive) | 21.5 µM (inactive) | 13 µM (inactive) | 20.7 µM (inactive) | 16.7 µM |  | 21.2 µM (inactive) | 19.5 µM (inactive) | 22 µM (inactive) | 18.7 µM (inactive) | 37.2 µM (inactive) | 16.7 µM (inactive) | 5.07 µM (inactive) | 6.14 µM (inactive) | 15.1 µM (inactive) | 20 µM (inactive)
COC1/C(=C\c2ccccc2I)c2ccccc2N1C(C)=O (stereo unspecified) | 16.4 µM (inactive) | 25.2 µM (inactive) | 12.9 µM (inactive) | 18.1 µM (inactive) | 14.2 µM | 17.3 µM (inactive) | 14.3 µM (inactive) | 16 µM (inactive) | 17.6 µM (inactive) | 14.3 µM (inactive) | 17.2 µM (inactive) | 18.6 µM (inactive) | 3.46 µM (inactive) | 14.1 µM (inactive) | 13 µM (inactive) | 
C=C1CCC23CC(CC[C@@H]2[C@@]12C[C@@H](c1ccoc1)OC2=O)OC3=O (stereo partly specified) | > 100 µM (inactive) | > 100 µM (inactive) | > 100 µM (inactive) | > 100 µM (inactive) | > 100 µM |  | > 100 µM (inactive) | > 100 µM (inactive) | > 100 µM (inactive) |  | > 100 µM (inactive) | > 100 µM (inactive) | > 100 µM (inactive) | > 100 µM (inactive) | > 100 µM (inactive) | > 100 µM (inactive)
CC(NC1CCCC[C@@H]1O)c1ccccc1 (stereo partly specified) |  | > 100 µM (inactive) | > 100 µM (inactive) | > 100 µM (inactive) | > 100 µM | > 100 µM (inactive) | > 100 µM (inactive) | > 100 µM (inactive) | > 100 µM (inactive) | > 100 µM (inactive) | > 100 µM (inactive) | > 100 µM (inactive) | > 100 µM (inactive) | > 100 µM (inactive) | > 100 µM (inactive) | > 100 µM (inactive)
Cc1nc2c(o1)/C(=N\c1ccccc1)c1ccccc1/C2=N/c1ccccc1 | > 100 µM (inactive) | 70.1 µM (inactive) | 45.3 µM (inactive) | > 100 µM (inactive) | 16 µM |  | > 100 µM (inactive) | > 100 µM (inactive) | 39.4 µM (inactive) | 61.8 µM (inactive) | > 100 µM (inactive) | 79.3 µM (inactive) | > 100 µM (inactive) | > 100 µM (inactive) | > 100 µM (inactive) | > 100 µM (inactive)
Cc1cc(O)c2c(c1)C(=O)c1cc(O)cc(O)c1C2=O [EMODIN] |  | 49.2 µM (inactive) | 24.4 µM (inactive) |  | 22.9 µM | 25.4 µM (inactive) | 23.3 µM (inactive) | 31.3 µM (inactive) | 20.3 µM (inactive) | 32.6 µM (inactive) | 14.4 µM (inactive) | 24.7 µM (inactive) | 26.9 µM (inactive) | 31 µM (inactive) |  | 39.4 µM (inactive)
